Experimental data: patent publication US20250115872A1, “GENERATION OF BROWN ADIPOCYTES FROM HUMAN PLURIPOTENT STEM CELLS” (The Brigham and Women's Hospital, Inc., priority 2022, published 2025)

Tested on: iPSC-BAs
Test: Seahorse assay, oxygen consumption rate in iPSC-BAs
Assay type: cell-based, human
Experimental: FIGS. 8A-D: FIG. 8A—RT-qPCR analysis for UCP1 on 40 day old replated iPSC-derived adipogenic cultures treated with 10 μM forskolin or vehicle control DMSO treatment for 4 hours. Relative gene expression is shown as relative change to undifferentiated iPSC. Mean±SD, n=5, t-test, p<0.01. FIG. 8B—Measurement of glycerol released in culture medium 40 day old replated iPSC-derived adipogenic cultures treated with 10 μM forskolin or vehicle control DMSO treatment for 4 hours. Glycerol amount normalized using total protein amount. Mean±SD, n=4, t-test, p≤0.01. FIG. 8C—Measurement of fluorescent intensity of thermosensitive ERthermAC dye in iPSC derived precursors on day 20 of differentiation and brown adipocytes after 40 days of replating in response to 10 μM forskolin or vehicle control DMSO. Each data point represents Mean±SD, n=3, t-test, p=0.0009. FIG. 8D—Seahorse analysis to measure oxygen consumption rate in iPSC derived precursors on day 20 of differentiation and brown adipocytes after 40 days of replating in response to 1.5 μM oligomycin, 10 μM forskolin or vehicle control DMSO and 1 μM Rotenone and Antimycin (Rot/AA), respectively. Adipocytes or precursor cells were in XFe96 cell culture plates one week prior to the assay. […]
Agilent Seahorse XFe96 Analyzer was used to measure oxygen consumption in live iPSC-BAs and precursor cells following manufacturer's instructions. […] Basal respiration was measured 3 times in the assay medium. […] Cells were then treated with 10 μM Forskolin (Sigma-Aldrich, F6886) or DMSO (Sigma-Aldrich, D2650) and oxygen consumption rate (OCR) was measured for 70 minutes (12 measurements). […] Cells were automatically segmented using custom code in Fiji and number of DAPI and mCherry positive cells were quantified. […]
The process of thermogenesis is driven by the flow of protons through UCP1 in the mitochondrial inner membrane. To examine whether forskolin-induced thermogenesis in iPSC-BAs is coupled to proton leak in mitochondria, we measured oxygen consumption rate (OCR) with a Seahorse metabolic flux analyzer in 40 day-old replated cultures ([…]). […]

[1] = 1 μM Rotenone and Antimycin (Rot/AA), last step, electron transport chain block

Row | Molecule | oxygen consumption rate (OCR) [1] | oxygen consumption rate (OCR) (1.5 μM Oligomycin alone, versus basal respiration)
1 | C=C(C)[C@H]1Cc2c(ccc3c2O[C@@H]2COc4cc(OC)c(OC)cc4[C@@H]2C3=O)O1 [Rotenone] | drop of OCR | 
2 | Antimycin | drop of OCR | 
3 | CC[C@H]1/C=C/C=C/C[C@@H](C)[C@H](O)[C@@](C)(O)C(=O)[C@@H](C)[C@H](O)[C@@H](C)C(=O)[C@@H](C)[C@H](O)[C@@H](C)/C=C/C(=O)O[C@@H]2[C@H](C)[C@H](CC1)O[C@]1(CC[C@H](C)[C@H](C[C@@H](C)O)O1)[C@H]2C [Oligomycin] |  | the OCR in cells decreased
